Measurements published in publication PMC12670426 (Journal of Medicinal Chemistry, 2025).

Test: Microsomal stability assay, human liver microsomes
Type: in vitro ADME
Conditions: pooled liver microsomes, pH 7.4, human liver microsomes 0.5 mg/mL, NADPH
Procedure: Microsomal stability was determined using 0.5 mg/mL of pooled human, mouse, or rat liver microsomes (Thermo Fisher Scientific) in 90 mM TRIS-Cl buffer (pH 7.4) containing 2 mM NADPH and 2 mM MgCl2. Test compounds (10 μM) were added, and the resulting mixture was incubated at 37 °C for 10, 60, 120, and 180 min. The reactions were terminated by the addition of four volumes of ice-cold methanol, followed by vigorous mixing. The samples were left at −20 °C for 30 min and then stored at 4 °C overnight. The next day, samples were centrifuged, and supernatants were diluted with four volumes of 30% methanol in water. Zero time points were prepared by adding ice-cold methanol to the mixture of compounds and cofactors prior to the addition of microsomes. The samples were then analyzed using the Echo-MS system (SCIEX) with MRM transition monitoring, except for compound 3af, which was analyzed by LC–MS/MS as described in the plasma stability assay.

With `CC(=O)N(c1cc(C(=O)O)cc2[nH]ccc12)[C@@H]1O[C@H](CO)[C@@H](S[C@@H]2O[C@H](CO)[C@H](O)[C@H](n3cc(-c4cccc(F)c4)nn3)[C@H]2O)[C@H](O)[C@H]1O` [Compound 11, N-[4-S-(3-Deoxy-3-(4-(3-fluorophenyl)-1H-1,2,3-triazol-1-yl)-β-D-galactopyranosyl)-4-thio-β-D-glucopyranosyl]-N-(6-carboxy-1H-indol-4-yl)acetamide] the microsomal CLint at 10 μM was under 2 µL/min/mg.
